The record followed here is PubChem BioAssay (NCI).

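Grown in 96-well plates, cells were treated for 48 hours with each compound at five concentrations. Insufficient inhibition: endpoint recorded as highest concentration tested. GI50: concentration for 50% inhibition of growth. The concentration for full growth arrest is given as TGI.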

One experiment deals with HCT-116 colon. Briefly: inhibition of tumour cell growth, NCI panel, 48 h.
As to `CN(C(=O)c1ccc(C(F)(F)F)cc1)c1ccc(Oc2ccc3c(c2)cc(C(=O)N2CCN(Cc4ccc(OC(F)F)cc4)CC2)n3C)nc1`, the GI50 is below 0.01 µM and the TGI was above 100 µM.
`Nc1ncnc2c1nnn2C1OC(CO)C(O)C1O` (stereo not given): the TGI was found to be 10.5 µM.
Turning to `CN1CCN(CCCn2c(=O)c3sc4ncccc4c3n3nnc(-c4ccccc4)c23)CC1`, the GI50 was 5.23 µM and the TGI worked out at 11.7 µM.
With `NC1(C(=O)OCc2ccccc2)CCCC1`, the TGI stood at 41.8 µM.
With `CCCCCCCC(=O)SCC/C=C/[C@@H]1CC(=O)NCc2cc(ccn2)C2=N[C@@](C)(CS2)C(=O)N[C@@H](C(C)C)C(=O)O1`, the GI50 was 0.00468 µM and the TGI stood at 0.0466 µM.
`CSc1nc(NC2OCC(OC(C)=O)C(OC(C)=O)C2OC(C)=O)c(N=CC=Nc2c(NC3OCC(OC(C)=O)C(OC(C)=O)C3OC(C)=O)nc(SC)[nH]c2=O)c(=O)[nH]1` (stereo not given): the TGI was above 100 µM.
On to `N#CC(C#N)=CNC(N)=S`, for which the TGI is above 100 µM.
Still for that read-out and setting: to `CC1(C)C2CCC(=O)C1CC2` (stereo not given) belongs above 100 µM.
Regarding `ClCc1cccc(Cn2cnc3ncnc(Cl)c32)c1`, the GI50 was 1.78 µM and the TGI turned out to be 5.21 µM.
Regarding `OCC#Cc1ccccc1C#Cc1ccccc1`, the GI50 is 15.3 µM and the TGI worked out at 28.6 µM.
For the compound `COc1ccc(-c2nnc(COc3ccc(C(=O)/C=C/c4ccco4)cc3)o2)cc1`, the GI50 is 1.82 µM and the TGI came to 3.36 µM.
In turn, `Cc1ccccc1S(=O)(=O)OC1NS(=O)(=O)c2ccccc21` (stereo not given) came in with a TGI above 100 µM.
With `O=C(/C=C/c1ccncc1)c1cc(Cl)ccc1O`, the GI50 is 14.6 µM and the TGI was determined as 27.9 µM.
In the case of `COc1cc2c3c(n(C)c(=O)c2cc1OC)-c1cc2c(cc1/C3=C\CCCN)OCO2`, the GI50 was 4.64 µM and the TGI was 25.2 µM.
Regarding `Cc1ccc(S(=O)(=O)Nc2ccccc2C(=O)c2ccc(C)c(C)c2)cc1`, the TGI was above 100 µM.
Consider `COc1ccc(-c2nnc(COc3ccc(NC(=O)Nc4cc(C(F)(F)F)cc(C(F)(F)F)c4)cc3F)o2)cc1`, for which the GI50 is 1.63 µM and the TGI was determined as 3.98 µM.
In the case of `C[Si](C)(C)C1(Sc2ccccc2)SCCCS1`, the TGI is above 100 µM.
The same measure, in the same setting: then `O=c1cc(-c2ccccc2)oc2cc(OCCCOc3ccc4c(=O)cc(-c5ccccc5)oc4c3)ccc12`, with above 100 µM.

The subject of a further experiment is TK-10 renal. Briefly: inhibition of tumour cell growth, NCI panel, 48 h.
For `CN(C(=O)c1ccc(C(F)(F)F)cc1)c1ccc(Oc2ccc3c(c2)cc(C(=O)N2CCN(Cc4ccc(OC(F)F)cc4)CC2)n3C)nc1`, the GI50 is 15.7 µM and the TGI is above 96.1 µM.
For `Nc1ncnc2c1nnn2C1OC(CO)C(O)C1O` (stereo not given) the same measures were 0.151 µM and 3.39 µM.
Take `COc1cc(/C=C2\CN(S(=O)(=O)c3ccccc3)C/C(=C\c3cc(CN4CCCC4)c(O)c(OC)c3)C2=O)cc(CN2CCCC2)c1O`: the GI50 was 3.18 µM and the TGI turned out to be 7.73 µM.
`CN1CCN(CCCn2c(=O)c3sc4ncccc4c3n3nnc(-c4ccccc4)c23)CC1`: the GI50 was 6.92 µM and the TGI turned out to be 13.6 µM.
`NC1(C(=O)OCc2ccccc2)CCCC1` returned a TGI above 100 µM.
Turning to `O=C(/C=C/c1ccc(Cl)cc1)c1ccc(Nc2ccnc3cc(Cl)ccc23)cc1`, the GI50 is above 84.7 µM and the TGI is above 100 µM.
Consider `CCCCCCCC(=O)SCC/C=C/[C@@H]1CC(=O)NCc2cc(ccn2)C2=N[C@@](C)(CS2)C(=O)N[C@@H](C(C)C)C(=O)O1`, for which the GI50 was below 0.0141 µM and the TGI was 0.173 µM.
Compound `CSc1nc(NC2OCC(OC(C)=O)C(OC(C)=O)C2OC(C)=O)c(N=CC=Nc2c(NC3OCC(OC(C)=O)C(OC(C)=O)C3OC(C)=O)nc(SC)[nH]c2=O)c(=O)[nH]1` (stereo not given) displayed a TGI above 100 µM.
The same measure, in the same setting: then `CC1(C)C2CCC(=O)C1CC2` (stereo not given), with above 100 µM.
On to `ClCc1cccc(Cn2cnc3ncnc(Cl)c32)c1`, for which the GI50 is 1.76 µM and the TGI came to 3.3 µM.
For `OCC#Cc1ccccc1C#Cc1ccccc1` the same measures were 13.6 µM and 26.6 µM.
For `COc1ccc(-c2nnc(COc3ccc(C(=O)/C=C/c4ccco4)cc3)o2)cc1` the same measures were 2.81 µM and 6.25 µM.
Take `Cc1ccccc1S(=O)(=O)OC1NS(=O)(=O)c2ccccc21` (stereo not given): the TGI was above 100 µM.
Take `COc1cc2c3c(n(C)c(=O)c2cc1OC)-c1cc2c(cc1/C3=C\CCCN)OCO2`: the GI50 was 21.9 µM and the TGI was above 100 µM.
`Cc1ccc(S(=O)(=O)Nc2ccccc2C(=O)c2ccc(C)c(C)c2)cc1` came in with a TGI above 100 µM.
As to `COc1ccc(-c2nnc(COc3ccc(NC(=O)Nc4cc(C(F)(F)F)cc(C(F)(F)F)c4)cc3F)o2)cc1`, the GI50 was 3.49 µM and the TGI came to 12.4 µM.
`C[Si](C)(C)C1(Sc2ccccc2)SCCCS1`: the TGI is above 100 µM.
`O=c1cc(-c2ccccc2)oc2cc(OCCCOc3ccc4c(=O)cc(-c5ccccc5)oc4c3)ccc12` had a TGI above 100 µM.

The next experiment relates to T-47D breast. The experiment can be described thus: inhibition of tumour cell growth, NCI panel, 48 h.
Consider `CN(C(=O)c1ccc(C(F)(F)F)cc1)c1ccc(Oc2ccc3c(c2)cc(C(=O)N2CCN(Cc4ccc(OC(F)F)cc4)CC2)n3C)nc1`, for which the GI50 was 0.253 µM and the TGI is above 58.2 µM.
As to `Nc1ncnc2c1nnn2C1OC(CO)C(O)C1O` (stereo not given), the GI50 was 0.265 µM and the TGI was found to be 4.81 µM.
On the same counts, the results for `COc1cc(/C=C2\CN(S(=O)(=O)c3ccccc3)C/C(=C\c3cc(CN4CCCC4)c(O)c(OC)c3)C2=O)cc(CN2CCCC2)c1O` are 3.76 µM and above 100 µM.
`CN1CCN(CCCn2c(=O)c3sc4ncccc4c3n3nnc(-c4ccccc4)c23)CC1`: the GI50 is 7.99 µM and the TGI came out at 15.8 µM.
In the case of `NC1(C(=O)OCc2ccccc2)CCCC1`, the TGI was above 100 µM.
For `O=C(/C=C/c1ccc(Cl)cc1)c1ccc(Nc2ccnc3cc(Cl)ccc23)cc1`, the GI50 was above 55.7 µM and the TGI is above 100 µM.
For `CCCCCCCC(=O)SCC/C=C/[C@@H]1CC(=O)NCc2cc(ccn2)C2=N[C@@](C)(CS2)C(=O)N[C@@H](C(C)C)C(=O)O1` the same measures were 0.0838 µM and 0.616 µM.
In turn, `CSc1nc(NC2OCC(OC(C)=O)C(OC(C)=O)C2OC(C)=O)c(N=CC=Nc2c(NC3OCC(OC(C)=O)C(OC(C)=O)C3OC(C)=O)nc(SC)[nH]c2=O)c(=O)[nH]1` (stereo not given) showed a TGI above 100 µM.
